Laboratory results as given in patent publication US20070191324A1, “Methods for treatment or prophylaxis of aldosterone-mediated pathogenic effects in a subject using an epoxy-steroidal aldosterone antagonist” (priority 1999, published 2007).
Where two headings read alike, the source gives them in different places.

Assays:
[1] = tested on: saline-loaded adrenalectomized rats treated with aldosterone; experiment: Antimineralocorticoid activity in saline-loaded adrenalectomized rats treated with aldosterone (Example A-2); format: in vivo
Protocol: Methods: The antimineralocorticoid pharmacological activity was determined in saline-loaded adrenalectomized rats treated with aldosterone. […] Urinary sodium, potassium and water excretion were measured.

[2] = tested on: patients with hypertension and left ventricular hypertrophy; experiment: Eplerenone, enalapril and combination in left ventricular hypertrophy, 9 months (Examples A-15, D-4); format: in vivo, human
From the text: Table […] illustrates forth the above-described dosing scheme. […] Additional laboratory assessments of blood for clinical safety will be done monthly. Routine urinalysis will be done every three months. […] A blood sample for genotyping will be collected at Week 0. At screening and at Month 9, a 12-lead ECG and physical examination will be done. […] In case of early termination, an MRI and blood sample for TSH will be done for those patients who have received double-blind treatment for at least three months. At Weeks 0, 12 and Months 6 and 9, pharmacoeconomic data will be collected on all patients. The primary measure of efficacy is the change from baseline in LVM, as assessed by MRI, in the eplerenone group versus the enalapril group. […] Secondary measures of efficacy will be the following: […] (3) aortic compliance and ventricular filling parameters; and (4) special studies (PIIINP, microalbuminuria, PAI, and tPA). Additionally, the long-term safety and tolerability of the three treatment groups will be compared. […] The study design is illustrated in FIG. D-10. […] Left ventricular mass (LVM) (assayed by MRI), BP, collagen turnover, and tolerability were assessed at the 9-month endpoint.

[3] = tested on: patients with low-renin hypertension; experiment: Eplerenone versus losartan in low-renin hypertension, 16 weeks (Examples A-16, D-5); format: in vivo, human
From the text: Patients will continue on therapy until Week 16. Table […] illustrates the above-described dosing scheme. […] Plasma renin will be determined at screening; serum aldosterone, plasma renin, and plasma cortisol will be determined at Weeks 0, 8, and 16. […] A 12-lead electrocardiogram will be done at Weeks 0 and 16. Physical examinations will be completed at screening and at Week 16. […] Secondary measures of efficacy will be the following: […] Study design is illustrated in FIG. D-16. […] At Weeks 8 and 16, BP, RAAS hormone profile, and safety were assessed.

[4] = tested on: saline-loaded adrenalectomized rats treated with aldosterone; experiment: Subcutaneous vs. oral eplerenone in saline-loaded adrenalectomized rats treated with aldosterone (Example A-3); format: in vivo
Protocol: Urinary sodium, potassium and water excretion were measured. The results are expressed as the ratio of excreted urinary sodium to potassium (Na/K)±SEM.

[5] = tested on: older patients with systolic hypertension and/or widened pulse pressure; experiment: Eplerenone versus amlodipine in systolic hypertension in older people, 24 weeks (Examples A-19, D-8); format: in vivo, human
From the text: At Week 10 or thereafter, if SBP is =170 mmHg on two consecutive visits, one to three days apart, and the patient is on the maximum dose of study drug, he/she must be withdrawn. Patients will receive double-blind study medication for a total of 24 weeks. Table A-19A illustrates the above-described dosing scheme.
Heart rate, BP, serum potassium levels, concomitant medications and adverse events will be assessed at each visit. […] Special studies: collagen markers [aminoterminal propeptide of type III procollagen (PIIINP), 7S domain of type IV collagen (7SIVC), and type I collagen telopeptide (ICTP)], plasma […] (PAI-1), tissue plasminogen activator (t-PA), microalbuminuria, and at selected sites, Ambulatory Blood Pressure Monitoring (ABPM) and arterial compliance will be done at Weeks 0, 14, and 24 or at Final Visit. Quality of Life Questionnaires will be done at visit 2A (beginning of single blind) and Weeks 0, 14, and 24 or at Final Visit. DNA genotyping will be performed at baseline.
In older patients, elevated systolic BP and wide pulse pressure predict cardiovascular risk better than diastolic BP. Reduced vascular compliance and intraglomerular hypertension typically accompany isolated systolic hypertension in older people.
Changes in arterial compliance, measured by pulse-wave velocity, microalbuminuria, and adverse effects (AEs) were assessed at baseline and after 24 weeks of therapy.

[6] = tested on: black and white patients with mild-to-moderate hypertension; details: for Active Renin (% change) / ΔDBP / ΔSBP: baseline to Week 16
[7] = tested on: patients with stage I-III hypertension; experiment: Fixed-dose eplerenone vs placebo, clinic and ambulatory BP, 12 weeks (Example D-13); format: in vivo, human
From the text: Patients were reassessed using clinic and ambulatory BP at the end of 12 weeks of therapy.

[8] = 9-month endpoint, forced titration
[9] = 9-month endpoint, EPL 200 mg, ENAL 40 mg, EPL 200 mg/ENAL 10 mg
[10] = Week 8 (monotherapy), EPL 100-200 mg QD, LOS 50-100 mg QD
[11] = Week 16, after allowed addition of HCTZ
[12] = after 24 weeks, titration-to-effect

COC(=O)[C@@H]1CC2=CC(=O)CC[C@]2(C)[C@@]23O[C@@H]2C[C@@]2(C)[C@@H](CC[C@@]24CCC(=O)O4)[C@H]13 [Eplerenone, Pregn-4-ene-7,21-dicarboxylic acid, 9,11-epoxy-17-hydroxy-3-oxo-, γ-lactone, methyl ester, (7α, 11α, 17β)-]
Urinary Na/K ± SEM ([1]; aldosterone & antagonist 1 mg/kg by gavage): 2.53 ± 0.23
Urinary Na/K ± SEM ([1]; aldosterone & antagonist 3 mg/kg by gavage): 4.08 ± 0.26
Urinary Na/K ± SEM ([1]; aldosterone & antagonist 10 mg/kg by gavage): 4.11 ± 0.27
DBP Adjusted mean change [2, 8]: −10.8 mmHg
SBP Adjusted mean change [2, 8]: −21.0 mmHg
decrease from baseline in UACR [2, 9]: −28.7%
decrease from baseline in collagen turnover [2, 9]: −7.3%
patients experiencing coughing ([2]; 9-month study): 3.1%
LVM Adjusted mean change [g (SE)] ([2]; left ventricular mass by MRI, 9-month endpoint, forced titration (EPL 50-200 mg, ENAL 10-40 mg)): −14.5 (3.36) g
regressing LVH and reducing collagen turnover ([2]; monotherapy): as effective as enalapril monotherapy
cumulative percentage of patients requiring HCTZ add-on therapy ([3]; 16 weeks): 32.5%
increase in active renin levels ([3]; Week 8): +50.1%
increase in serum aldosterone levels ([3]; Week 8): +74.7%
mean change from baseline in DBP [3, 10]: −9.3 mmHg
mean change from baseline in SBP [3, 10]: −15.8 mmHg
increase in active renin levels ([3]; Week 16): +73.0%
increase in serum aldosterone levels ([3]; Week 16): +89.8%
mean change from baseline in DBP [3, 11]: −10.8 mmHg
mean change from baseline in SBP [3, 11]: −18.3 mmHg
safety and tolerability ([3]; in vivo): safe and well tolerated
Mean Na/K ([4]; Table A-3A, aldosterone + antagonist 10 mg/100 g rat): 2.17
Mean Na/K ([4]; Table A-3A, aldosterone + antagonist 30 mg/100 g rat): 2.98
Mean Na/K ([4]; Table A-3A, aldosterone + antagonist 100 mg/100 g rat): 3.44
Mean Na/K ([4]; Table A-3B, aldosterone + antagonist 3 mg/100 g rat): 0.90
Mean Na/K ([4]; Table A-3B, aldosterone + antagonist 10 mg/100 g rat): 1.34
Mean Na/K ([4]; Table A-3B, aldosterone + antagonist 30 mg/100 g rat): 1.18
Mean Na/K ([4]; Table A-3B, aldosterone + antagonist 100 mg/100 g rat): 2.10
Mean Na/K ([4]; Table A-3B, aldosterone + antagonist 300 mg/100 g rat): 4.79
Mean Na/K ([4]; Table A-3B, aldosterone + antagonist 1000 mg/100 g rat): 5.70
efficacy of subcutaneous injection versus oral administration ([4]; antagonism of aldosterone-mediated renal effects): Subcutaneous injection provided better efficacy than oral administration
Edema rates (%) ([5]; 24-week study): 3.7%
peripheral edema frequency ([5]; 24 weeks): 3.7%
reduction in pulse pressure ([5]; 24 weeks): −15.9 mmHg
symptoms with significant and clinically meaningful worsening in distress from Baseline (QoL) ([5]; 24 weeks): no worsening in distress
reduction in SBP ([5]; 24 weeks, EPL 50-200 mg QD, AML 2.5-10 mg QD): −20.5 mmHg
Pulse Pressure (change) [5, 12]: −15.9 ± 0.96 mmHg
Systolic BP (change) [5, 12]: −20.5 ± 1.14 mmHg
safety and tolerability ([5]; in vivo): safe and well tolerated
Δ microalbuminuria (%) ([5]; only for patients with baseline microalbuminuria (>30 mg/g), 24 weeks): −52.3%
reduction in UACR ([5]; patients with baseline microalbuminuria (>30 mg/g)): −27.1%
treatment of mild-to-moderate hypertension in black hypertensive patients ([6]; 16 weeks): superior to losartan
Active Renin (% change) ([6]; All Patients): +45.6%
ΔDBP ([6]; All Patients): −10.3 mmHg
ΔSBP ([6]; All Patients): −12.8 mmHg
Active Renin (% change) ([6]; Black Patients): +39.3%
ΔDBP ([6]; Black Patients): −10.2 mmHg
ΔSBP ([6]; Black Patients): −13.5 mmHg
adjusted mean percent change from baseline in UACR ([6]; Week 16, EPL 50-200 mg QD, LOS 50-100 mg QD): −21.6%
Active Renin (% change) ([6]; White Patients): +57.1%
ΔDBP ([6]; White Patients): −11.1 mmHg
ΔSBP ([6]; White Patients): −12.3 mmHg
safety and tolerability ([6]; human, in vivo): safe and well-tolerated
Δ Ambulatory BP, diastolic ([7]; 25 mg QD): −4.4 mmHg
Δ Ambulatory BP, systolic ([7]; 25 mg QD): −6.4 mmHg
Δ Clinic BP, diastolic ([7]; 25 mg QD): −3.7 mmHg
Δ Clinic BP, systolic ([7]; 25 mg QD): −5.7 mmHg
Δ Ambulatory BP, diastolic ([7]; 50 mg QD): −4.1 mmHg
Δ Ambulatory BP, systolic ([7]; 50 mg QD): −6.8 mmHg
Δ Clinic BP, diastolic ([7]; 50 mg QD): −4.6 mmHg
Δ Clinic BP, systolic ([7]; 50 mg QD): −6.7 mmHg
Δ Ambulatory BP, diastolic ([7]; 100 mg QD): −5.5 mmHg
Δ Ambulatory BP, systolic ([7]; 100 mg QD): −9.1 mmHg
Δ Clinic BP, diastolic ([7]; 100 mg QD): −6.3 mmHg
Δ Clinic BP, systolic ([7]; 100 mg QD): −10.4 mmHg
Δ Ambulatory BP, diastolic ([7]; 200 mg QD): −5.7 mmHg
Δ Ambulatory BP, systolic ([7]; 200 mg QD): −10.3 mmHg
Δ Clinic BP, diastolic ([7]; 200 mg QD): −5.4 mmHg
Δ Clinic BP, systolic ([7]; 200 mg QD): −8.8 mmHg
gynecomastia, menstrual abnormalities, breast pain ([7]; 25-200 mg QD): no reports of gynecomastia, menstrual abnormalities, or breast pain
